Target: T1, histamine H4 receptor (Homo sapiens, UniProt Q9H3N8)
T1 construct: expressed in transfected cells; host or cells: HEK293SFM cells (membrane preparation)
Assay: Inhibition of histamine H4 receptor (Table A1; H4 membrane binding assay)
Details: not given
Method in brief: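 Radioligand binding was measured by filtration through PEI-treated GF/B filters with scintillation counting, using 1000× unlabeled ligand to define nonspecific binding. Membranes were prepared from HEK293SFM cells recombinantly expressing human H4 in ice-cold 50 mM Tris-HCl, pH 7.5, plus protease inhibitors.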

T1 sequence (Q9H3N8 whole entry): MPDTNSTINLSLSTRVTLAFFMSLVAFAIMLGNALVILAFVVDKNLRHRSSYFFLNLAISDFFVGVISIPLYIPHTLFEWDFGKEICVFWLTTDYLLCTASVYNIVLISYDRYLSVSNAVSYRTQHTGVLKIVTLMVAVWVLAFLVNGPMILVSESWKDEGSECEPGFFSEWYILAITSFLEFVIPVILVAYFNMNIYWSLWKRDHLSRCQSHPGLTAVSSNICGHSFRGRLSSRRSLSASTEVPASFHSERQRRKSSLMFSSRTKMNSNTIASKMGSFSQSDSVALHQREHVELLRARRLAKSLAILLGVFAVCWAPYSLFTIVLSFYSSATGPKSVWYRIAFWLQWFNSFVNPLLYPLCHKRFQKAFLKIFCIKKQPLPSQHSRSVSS

For `CC1Cc2ccc(-c3ccn(CC#N)n3)cc2CN1c1cc(N2CCN(C)CC2)nc(N)n1` (single isomer, unassigned) [Example 82B, (3-{2-[2-Amino-6-(4-methylpiperazin-1-yl)pyrimidin-4-yl]-3-methyl-1,2,3,4-tetrahydroisoquinolin-7-yl}-1H-pyrazol-1-yl)acetonitrile], which inhibition at 1 µM is on record?
The inhibition at 1 µM was 66%.

For `CC1Cc2ccc(-c3cnn(C4CCOCC4)c3)cc2CN1c1cc(N2CCN(C)CC2)nc(N)n1` (stereo not shown) [Example 95B, 4-(4-Methylpiperazin-1-yl)-6-[3-methyl-7-[1-(tetrahydro-2H-pyran-4-yl)-1H-pyrazol-4-yl]-3,4-dihydroisoquinolin-2(1H)-yl]pyrimidin-2-amine], which inhibition at 1 µM is on record?
The inhibition at 1 µM was 79%.

Same assay, conditions: histamine H4 receptor; "> a" = exceeds experiment limit

`CNC(=O)c1ccc(-c2cc3c(cc2F)CCN(c2cc(N4CCN(C)CC4)nc(N)n2)C3)cn1` [Example 127, 5-{2-[2-Amino-6-(4-methylpiperazin-1-yl)pyrimidin-4-yl]-6-fluoro-1,2,3,4-tetrahydroisoquinolin-7-yl}-N-methylpyridine-2-carboxamide] was tested. Which IC50 did it give?
Its IC50 is 0.104 µM.

How did the IC50 turn out when `CC(=O)N1CCN(c2ccc3c(c2)CN(c2cc(N4CCN(C)CC4)nc(N)n2)CC3)CC1` [Example 31, 4-[7-(4-Acetylpiperazin-1-yl)-3,4-dihydroisoquinolin-2 (1H)-yl]-6-(4-methylpiperazin-1-yl)pyrimidin-2-amine] was run?
The IC50 was 0.299 µM.

With `COCCn1cc(-c2ccc3c(c2)CN(c2cc(N4CCN(C)CC4)nc(N)n2)C(C)C3)cn1` (single isomer, unassigned) [Example 112, 4-[7-[1-(2-Methoxyethyl)-1H-pyrazol-4-yl]-3-methyl-3,4-dihydroisoquinolin-2(1H)-yl]-6-(4-methylpiperazin-1-yl)pyrimidin-2-amine] as the compound, how does the IC50 read?
Its IC50 is 0.04 µM.

Which IC50 does the source give for `CN1CCN(c2cc(N3CCc4ccc(-n5cc(Cl)cn5)cc4C3)nc(N)n2)CC1` [Example 14, 4-[7-(4-Chloro-1,1-pyrazol-1-yl)-3,4-dihydroisoquinolin-2(1H)-yl]-6-(4-methylpiperazin-1-yl)pyrimidin-2-amine] here?
Its IC50 is 0.223 µM.

Which IC50 does the source give for `CN1CCN(c2cc(N3CCc4ccc(C(=O)N(C)C)cc4C3)nc(N)n2)CC1` [Example 27, 2-[2-Amino-6-(4-methylpiperazin-1-yl)pyrimidin-4-yl]-N,N-dimethyl-1,2,3,4-tetrahydroisoquinoline-7-carboxamide] here?
The IC50 was 0.67 µM.

For `CCNC(=O)c1cc(-c2ccc3c(c2)CN(c2cc(N4CCN(C)CC4)nc(N)n2)C(C)C3)cn1C` (single isomer, unassigned) [Example 88A, 4-{2-[2-Amino-6-(4-methylpiperazin-1-yl)pyrimidin-4-yl]-3-methyl-1,2,3,4-tetrahydroisoquinolin-7-yl}-N-ethyl-1-methyl-1H-pyrrole-2-carboxamide], which IC50 is on record?
The IC50 was 0.025 µM.

For `CN1CCN(c2cc(N3Cc4ccccc4CC3=O)nc(N)n2)CC1` [Example 23, 2-[2-Amino-6-(4-methylpiperazin-1-yl)pyrimidin-4-yl]-1,4-dihydroisoquinolin-3(2H)-one], which IC50 is on record?
The IC50 was 0.158 µM.

How did the IC50 turn out when `CC1Cc2ccc(-c3ccnc(C(=O)N4CC[C@H](O)C4)c3)cc2CN1c1cc(N2CCN(C)CC2)nc(N)n1` (single isomer, unassigned) [Example 65B] was run?
The IC50 was 0.079 µM.

For `CNC(=O)c1ccc(-c2ccc3c(c2)CN(c2cc(N4CCN(C)CC4)nc(N)n2)CC3)cn1` [Example 2, 5-{2-[2-Amino-6-(4-methylpiperazin-1-yl)pyrimidin-4-yl]-1,2,3,4-tetrahydroisaquinolin-7-yl}-N-methylpyridine-2-carboxamide], which IC50 is on record?
The IC50 was 0.02 µM.

With `CC1Cc2ccc(-c3ccn(CCO)n3)cc2CN1c1cc(N2CCN(C)CC2)nc(N)n1` (single isomer, unassigned) [Example 84A, 2-(3-{2-[2-Amino-6-(4-methylpiperazin-1-yl)pyrimidin-4-yl]-3-methyl-1,2,3,4-tetrahydroisoquinolin-7-yl}-1H-pyrazol-1-yl)ethanol] as the compound, how does the IC50 read?
The IC50 was 0.03 µM.

With `CC1Cc2ccc(C3CCN(C(=O)N(C)C)CC3)cc2CN1c1cc(N2CCN(C)CC2)nc(N)n1` (stereo not shown) [Example 141, 4-{2-[2-Amino-6-(4-methylpiperazin-1-yl)pyrimidin-4-yl]-3-methyl-1,2,3,4-tetrahydroisoquinolin-7-yl}-N,N-dimethylpiperidine-1-carboxamide] as the compound, how does the IC50 read?
The IC50 was 0.04 µM.

For `CC1Cc2ccc(-c3ccc(C(=O)N(C)C)nc3)cc2CN1c1cc(N2CCN(C)CC2)nc(N)n1` (single isomer, unassigned) [Example 50A, 5-(2-(2-amino-6-(4-methylpiperazin-1-yl)pyrimidin-4-yl)-3-methyl-1,2,3,4-tetrahydroisoquinolin-7-yl)-N,N-dimethylpicolinamide], which IC50 is on record?
The IC50 was 0.0887 µM.

How did the IC50 turn out when `CC1Cc2ccc(-c3ccc(C(=O)N4CC[C@H](F)C4)nc3)cc2CN1c1cc(N2CCN(C)CC2)nc(N)n1` (single isomer, unassigned) [Example 154B] was run?
Its IC50 is 0.355 µM.

`CC(C)NC(=O)N1CCC(c2ccc3c(c2)CN(c2cc(N4CCN(C)CC4)nc(N)n2)C(C)C3)CC1` (stereo not shown) [Example 140, 4-{2-[2-Amino-6-(4-methylpiperazin-1-yl)pyrimidin-4-yl]-3-methyl-1,2,3,4-tetrahydroisoquinolin-7-yl}-N-isopropylpiperidine-1-carboxamide] was tested. Which IC50 did it give?
Its IC50 is 0.08 µM.

How did the IC50 turn out when `CN1CCN(c2cc(N3Cc4ccccc4C[C@H]3CO)nc(N)n2)CC1` [Example 15, {(3S)-2-[2-Amino-6-(4-methylpiperazin-1-yl)pyrimidin-4-yl]-1,2,3,4-tetrahydroisoquinolin-3-yl}methanol] was run?
Its IC50 is 0.145 µM.

With `CN1CCN(c2cc(N3CCc4ccc(C(=O)N5CCC(c6ccccc6)C5)cc4C3)nc(N)n2)CC1` (stereo not shown) [Example 24, 4-(4-Methylpiperazin-1-yl)-6-[7-[(3-phenylpyrrolidin-1-yl)carbonyl]-3,4-dihydroisoquinolin-2(1H)-yl]pyrimidin-2-amine] as the compound, how does the IC50 read?
Its IC50 is 0.966 µM.

Which IC50 does the source give for `CN1CCN(c2cc(-c3ccc4c(c3)CN(c3cc(N5CCN(C)CC5)nc(N)n3)CC4)ccn2)CC1` [Example 5, 4-(4-Methylpiperazin-1-yl)-6-[7-[2-(4-methylpiperazin-1-yl)pyridin-4-yl]-3,4-dihydroisoquinolin-2(1H)-yl]pyrimidin-2-amine] here?
The IC50 was 0.128 µM.

Which IC50 does the source give for `CC1Cc2ccc(-c3ccnc(C(=O)N4CC(C#N)C4)c3)cc2CN1c1cc(N2CCN(C)CC2)nc(N)n1` (single isomer, unassigned) [Example 63A, 1-[(4-{2-[2-amino-6-(4-methylpiperazin-1-yl)pyrimidin-4-yl]-3-methyl-1,2,3,4-tetrahydroisoquinolin-7-yl}pyridin-2-yl)carbonyl]azetidine-3-carbonitrile] here?
The IC50 was 0.044 µM.

`CN1CCN(c2cc(N3CCc4ccc(-c5cnc(C#N)c(F)c5)cc4C3)nc(N)n2)CC1` [Example 7, 5-{2-[2-Amino-6-(4-methylpiperazin-1-yl)pyrimidin-4-yl]-1,2,3,4-tetrahydroisoquinolin-7-yl}-3-fluoropyridine-2-carbonitrile] was tested. Which IC50 did it give?
Its IC50 is 0.076 µM.

Which IC50 does the source give for `CC1Cc2ccc(-c3ccc(C(=O)N(C)C)cn3)cc2CN1c1cc(N2CCN(C)CC2)nc(N)n1` (single isomer, unassigned) [Example 72, 6-{2-[2-Amino-6-(4-methylpiperazin-1-yl)pyrimidin-4-yl]-3-methyl-1,2,3,4-tetrahydroisoquinolin-7-yl}-N,N-dimethylnicotinamide] here?
Its IC50 is 0.269 µM.

How did the IC50 turn out when `CN1CCN(c2cc(N3CCc4ccc(N5CCC(c6ccn(C)c(=O)c6)CC5)cc4C3)nc(N)n2)CC1` [Example 41, 4-(1-{2-[2-Amino-6-(4-methylpiperazin-1-yl)pyrimidin-4-yl]-1,2,3,4-tetrahydroisoquinolin-7-yl}piperidin-4-yl)-1-methylpyridin-2(1H)-one] was run?
Its IC50 is 0.038 µM.

For `CN1CCN(c2cc(N3CCc4ccc(-c5cnn(C6CCNCC6)c5)cc4C3)nc(N)n2)CC1` [Example 13, 4-(4-Methylpiperazin-1-yl)-6-[7-(1-piperidin-4-yl-1H-pyrazol-4-yl)-3,4-dihydroisoquinolin-2 (1H)-yl]pyrimidin-2-amine], which IC50 is on record?
Its IC50 is 0.035 µM.

`CC1Cc2ccc(-c3cnn(C)c3)cc2CN1c1cc(N2CCCN(C)CC2)nc(N)n1` (stereo not shown) [Example 125, 4-(4-Methyl-1,4-diazepan-1-yl)-6-[3-methyl-7-(1-methyl-1H-pyrazol-4-yl)-3,4-dihydroisoquinolin-2(1H)-yl]pyrimidin-2-amine] was tested. Which IC50 did it give?
The IC50 was 0.056 µM.

How did the IC50 turn out when `CC1Cc2ccc(-c3ccn(Cc4ccccn4)n3)cc2CN1c1cc(N2CCN(C)CC2)nc(N)n1` (single isomer, unassigned) [Example 155, 4-(4-Methylpiperazin-1-yl)-6-[3-methyl-7-[1-(pyridin-2-ylmethyl)-1H-pyrazol-3-yl]-3,4-dihydroisoquinolin-2(1H)-yl]pyrimidin-2-amine] was run?
The IC50 was 0.0153 µM.

Which IC50 does the source give for `CCOc1ccc(Cn2cc(-c3ccc4c(c3)CN(c3cc(N5CCN(C)CC5)nc(N)n3)CC4)cn2)cn1` [Example 10, 4-[7-{1-[(6-Ethoxypyridin-3-yl)methyl]-1H-pyrazol-4-yl}-3,4-dihydroisoquinolin-2(1H)-yl]-6-(4-methylpiperazin-1-yl)pyrimidin-2-amine] here?
Its IC50 is 0.102 µM.

Which IC50 does the source give for `CN1CCN(c2cc(N3CCc4ccc(N5CCN(C(=O)c6ccco6)CC5)cc4C3)nc(N)n2)CC1` [Example 32, 4-{7-[4-(2-Furoyl)piperazin-1-yl]-3,4-dihydroisoquinolin-2(1H)-yl}-6-(4-methylpiperazin-1-yl)pyrimidin-2-amine] here?
The IC50 was 0.178 µM.

For `CC1Cc2ccc(-c3ccc(C(=O)N4CC[C@@H](O)C4)nc3)cc2CN1c1cc(N2CCN(C)CC2)nc(N)n1` (single isomer, unassigned) [Example 56A], which IC50 is on record?
Its IC50 is 0.085 µM.

For `CN[C@@H]1CCN(c2cc(N3Cc4cc(-c5cnn(C)c5)ccc4CC3C)nc(N)n2)C1` (stereo partly drawn) [Example 124, 4-[(3R)-3-(Methylamino)pyrrolidin-1-yl]-6-[3-methyl-7-(1-methyl-1H-pyrazol-4-yl)-3,4-dihydroisoquinolin-2(1H)-yl]pyrimidin-2-amine], which IC50 is on record?
The IC50 was 0.121 µM.

`CC1Cc2ccc(-c3cnn(C4CCN(CCO)CC4)c3)cc2CN1c1cc(N2CCN(C)CC2)nc(N)n1` (single isomer, unassigned) [Example 111, 2-[4-(4-{2-[2-Amino-6-(4-methylpiperazin-1-yl)pyrimidin-4-yl]-3-methyl-1,2,3,4-tetrahydroisoquinolin-7-yl}-1H-pyrazol-1-yl)piperidin-1-yl]ethanol] was tested. Which IC50 did it give?
Its IC50 is 0.022 µM.

— US20130244999A1, “Substituted Heterocyclic Compounds” (Incyte Corporation, priority 2008, published 2013)
